In ChEMBL document CHEMBL3352110, “Design, synthesis and in vitro evaluation of novel dehydroabietic acid derivatives containing a dipeptide moiety as potential anticancer agents” (Eur J Med Chem, 2015):

Experiments:
Type in all cases: functional, cell-based
NCI-H460 = assay: Cytotoxicity against human NCI-H460 cells after 48 hrs by MTT assay; settings: NCI-H460, 48 h
HeLa = assay: Cytotoxicity against human HeLa cells after 48 hrs by MTT assay
[1] = Cytotoxicity against human HL7702 cells after 48 hrs by MTT assay; settings: L02, 48 h
MGC-803 = assay: Cytotoxicity against human MGC803 cells after 48 hrs by MTT assay; settings: MGC-803, 48 h

Row | Structure (SMILES) | IC50 (NCI-H460) | IC50 (HeLa) | IC50 [1] | IC50 (MGC-803)
1 | COc1ccc(NC(=O)[C@@H](Cc2ccccc2)NC(=O)[C@]2(C)CCC[C@]3(C)c4ccc(C(C)C)cc4/C(=N\O)C[C@@H]23)cc1 | 20.4 µM | 17.3 µM | 56.2 µM | 15 µM
2 | CC(C)c1ccc2c(c1)/C(=N\O)C[C@H]1[C@](C)(C(=O)N[C@H](Cc3ccccc3)C(=O)Nc3ccc(Cl)cc3)CCC[C@]21C | 17.6 µM | 20.2 µM | 57.9 µM | 17.8 µM
3 | COc1cc(NC(=O)[C@@H](Cc2ccccc2)NC(=O)[C@]2(C)CCC[C@]3(C)c4ccc(C(C)C)cc4C(=O)C[C@@H]23)cc(OC)c1OC | 27.9 µM | 19.2 µM | 57.4 µM | 26.4 µM
4 | CC(C)c1ccc2c(c1)CC[C@H]1[C@](C)(C(=O)O)CCC[C@]21C [DEHYDROABIETIC ACID] | – | – | – | > 100 µM
5 | CC(C)c1ccc2c(c1)/C(=N\O)C[C@H]1[C@](C)(C(=O)N[C@@H](Cc3ccccc3)C(=O)Nc3ccccc3)CCC[C@]21C | 41.3 µM | 16 µM | 45.9 µM | 16 µM
6 | CC(C)c1ccc2c(c1)C(=O)C[C@H]1[C@](C)(C(=O)N[C@@H](Cc3ccccc3)C(=O)Nc3ccc(Cl)cc3)CCC[C@]21C | 49.1 µM | 36 µM | 57.8 µM | 29 µM
7 | COc1ccc(NC(=O)[C@@H](Cc2ccccc2)NC(=O)[C@]2(C)CCC[C@]3(C)c4ccc(C(C)C)cc4C(=O)C[C@@H]23)cc1 | 34.3 µM | 16.3 µM | 55.4 µM | 39.6 µM
8 | COc1cc(NC(=O)[C@H](Cc2ccccc2)NC(=O)[C@]2(C)CCC[C@]3(C)c4ccc(C(C)C)cc4C(=O)C[C@@H]23)cc(OC)c1OC | 54.6 µM | 49.6 µM | 69.5 µM | 21.3 µM
9 | CC(C)c1ccc2c(c1)/C(=N\O)C[C@H]1[C@](C)(C(=O)N[C@@H](Cc3ccccc3)C(=O)Nc3ccccc3Cl)CCC[C@]21C | 36.5 µM | 22.8 µM | 45.9 µM | 22.4 µM
10 | COc1ccccc1NC(=O)[C@H](Cc1ccccc1)NC(=O)[C@]1(C)CCC[C@]2(C)c3ccc(C(C)C)cc3/C(=N\O)C[C@@H]12 | 31 µM | 19.3 µM | 58.8 µM | 11.9 µM
11 | COc1ccccc1NC(=O)[C@H](Cc1ccccc1)NC(=O)[C@]1(C)CCC[C@]2(C)c3ccc(C(C)C)cc3C(=O)C[C@@H]12 | 33.8 µM | 14.7 µM | 57.5 µM | 39.4 µM
12 | CC(C)c1ccc2c(c1)C(=O)C[C@H]1[C@](C)(C(=O)N[C@H](Cc3ccccc3)C(=O)Nc3ccc(Cl)cc3)CCC[C@]21C | 23.4 µM | 32.3 µM | 76.3 µM | 20.2 µM
13 | CC(C)c1ccc2c(c1)/C(=N\O)C[C@H]1[C@](C)(C(=O)N[C@@H](Cc3ccccc3)C(=O)Nc3ccc(F)cc3)CCC[C@]21C | 23.4 µM | 20.7 µM | 49.7 µM | 24.4 µM
14 | CC(C)c1ccc2c(c1)C(=O)C[C@H]1[C@](C)(C(=O)N[C@H](Cc3ccccc3)C(=O)Nc3ccccc3Cl)CCC[C@]21C | 50 µM | > 100 µM | 46.5 µM | 29.7 µM
15 | CC(C)c1ccc2c(c1)/C(=N\O)C[C@H]1[C@](C)(C(=O)N[C@@H](Cc3ccccc3)C(=O)Nc3ccc(Cl)cc3)CCC[C@]21C | 102 µM | 101 µM | 60.8 µM | 25.8 µM
16 | COc1cc(NC(=O)[C@H](Cc2ccccc2)NC(=O)[C@]2(C)CCC[C@]3(C)c4ccc(C(C)C)cc4/C(=N\O)C[C@@H]23)cc(OC)c1OC | 36.6 µM | 25.9 µM | 49.6 µM | 17.5 µM
17 | CC(C)c1ccc2c(c1)C(=O)C[C@H]1[C@](C)(C(=O)N[C@H](Cc3ccccc3)C(=O)Nc3ccccc3F)CCC[C@]21C | 61.4 µM | 25.9 µM | 53.3 µM | 18.9 µM
18 | O=c1[nH]cc(F)c(=O)[nH]1 [FLUOROURACIL] | – | 36.5 µM | – | 30.4 µM
